The target in one data set is T1, CD11b/CD18 (Homo sapiens, UniProt P05107+P11215).
T1 construct: endogenous in cells; host or cells: human monocyte-derived macrophages from buffy coats
The data set can be described thus: Downmodulation of CD11b/CD18 on macrophages. Particulars: wells coated with peptides 0.5 mM or mAb IB4 50 μg/ml. The class given is cell-based. The method, then: Human monocytes were purified from buffy coats on Percoll gradients and cultured in 12.5% human serum in Teflon beakers. Macrophages were harvested from Teflon beakers after 6-8 days and suspended in HAP buffer. Terasaki wells were coated with 5 μl of peptides (0.5 mM) or anti-CD18 mAb IB4 (50 μg/ml). Control wells were coated with HAP. After 2 hours of incubation at RT, 5 μl of macrophages (5×10^5 /ml HAP) were added and allowed to spread for 45 mins. at 37° C. […] IgM-coated erythrocytes in buffer served as negative control. After washing, the number of erythrocytes bound per 100 leukocytes (adherence index) was quantitated visually under an inverted microscope.

The test system of the next data set is Human neutrophils. The data set is described as follows: Binding of 125I-Factor X to neutrophils. As to conditions: read-out: IC50 of inhibition of 125I-Factor X binding. The method, then: Human Factor X (Sigma or Hematologic Technologies Inc.) was labeled with ^125 I using Iodogen (Pierce Chemical Co.) Human neutrophils were isolated from heparinized blood according to the manufacturer's specification using Neutrophil Isolation Medium (Cardinal Associates, Santa Fe, N.M.) and washed three times with 5 mM EDTA-phosphate-buffered saline (PBS), pH 7.2, at 4° C. To eliminate platelet contamination,neutrophils were incubated with autologous serum containing 5 mM EDTA for 30 mins. at 37° C., washed three times with ice-cold PBS, pH 7.2, and resuspended in RPMI 1640 tissue culture medium (Whittaker M. A. Bioproducts, Walkersville, Md.) at 4° C. Binding of ^125 I-Factor X to neutrophils was measured based on a method described by Altieri et al. (1991) Science 254: 1200-1202. Briefly, 200 μl of neutrophils (1.5×10^7 /ml) were supplemented with 17.5 μl of 50 mM CaCl2, stimulated with 3.5 μl of 100 μM NH2 -formyl-Met-Leu-Phe (Sigma), and mixed with 30 μl of 10.3 μg/ml ^125 I-Factor X and 100 μl of 1.75 mM of peptide. Buffer alone and a peptide of scrambled sequence served as controls in each of the 3 experiments. After incubation for 20 mins. at room temperature, neutrophil-bound ^125 I-Factor X was separated from unbound ^125 I-Factor X by centrifugation of 300 μl aliquots through 50 μl of a mixture of Hi phenyl silicone oil DC 550 and methyl silicone oil DC 200 5:1 (Nye Inc. Specialty Lubricants, New Bedford, Mass.) at 12,000×g for 2 mins. Aliquots of the supernatant (cell free ^125 I-Factor X) and the cell pellet (cell bound ^125 I-Factor X) were counted in a gamma-counter. Nonspecific binding (~50,000 cpm) was determined by adding a 100 fold excess of unlabeled Factor X, and subtracted from total radioactivity (~500,000 cpm for controls).

For data set [1] the following is noted: 50% rabbit plasma at 37° C.
Method: To determine the stability of the FHA II peptide, the unmodified or the acetylated-amidated peptide were incubated in 50% rabbit plasma at 37° C.
The test system of data set [2] is rats inoculated intracisternally with Haemophilus influenzae type b lipooligosaccharide. The data set can be described thus: Rat meningitis model (H. influenzae LOS). The class given is in vivo. The method, then: The experiments were performed according to established protocols (Wispelway et al., 1988, J. Clin. Invest., 82: 1339-1346). Purified Haemophilus influenzae type b strain DL42 lipooligosaccharide (LOS) was prepared for inoculation by sonication for 30 minutes, dilution to the desired concentration (20 ng/50 μl) in normal saline or PBS, and sonication for an additional 15 to 30 minutes just prior to use.
Briefly, anesthetized female Wistar rats were placed under a micromanipulator and inoculated intracisternally with a 25 gauge needle. After removal of 50 μl of CSF (without visible blood contamination), rats were inoculated intracisternally with 50 μl (20 ng) of LOS using a 1 ml syringe with a 25 gauge needle. Ten to fifteen minutes after inoculation with LOS, the rats were treated by intravenous administration of the test substance: a solution of an FHA peptide in PBS, a solution of a control peptide in PBS, or an equal volume of PBS alone.
Three hours after LOS inoculation, 5 μCi of ^125 I-radiolabelled albumin in 50 μl normal saline was administered intravenously. One hour later, CSF was collected via intracisternal puncture and blood samples were collected via intracardiac puncture. CSF leukocytosis was determined by manually counting white blood cells using a hemacytometer, and blood-brain barrier permeability was determined as the percent of radioactivity in whole blood that was present in the CSF. Blood samples were obtained immediately prior to inoculation, immediately prior to treatment, and at 4 hours post-inoculation for determination of peripheral white blood cell concentrations.

A further data set deals with THP-1 cells. The data set is described as follows: Generation of Factor Xa by monocytes. It counts as cell-based. As to conditions: peptides 0.5 mM. The method, then: Factor Xa generation was determined by a modification of the method of Miletich et al. (1978), J. Biol. Chem. 253: 6908-6916. THP-1 cells (ATCC; 3×10^7 /ml) resuspended in RPMI 1640 (Bio Whittaker, Walkersville, Md.) were incubated with 100 μM ADP (Sigma), 2.5 mM CaCl2, 1 or 5 μg/ml Factor X (Hematologic Technologies Inc.) and 0.5 mM peptides at room temperature. After 20 minutes, 100 μl of the reaction mixture was transferred to 37° C. and supplemented with 100 μl of bovine factor VII- and Factor X-deficient plasma (Sigma). Coagulation was initiated by adding 100 μl of 25 mM CaCl2 and the clotting time was determined. Factor Xa procoagulant activity (ng/ml) was calculated by means of a standard curve constructed by serial concentrations of Factor Xa (Hematologic Technologies Inc.) from 50 to 250 ng/ml.

Where no end group is shown, it is not given here.

T1 sequence (P05107 23-769, other chains not shown): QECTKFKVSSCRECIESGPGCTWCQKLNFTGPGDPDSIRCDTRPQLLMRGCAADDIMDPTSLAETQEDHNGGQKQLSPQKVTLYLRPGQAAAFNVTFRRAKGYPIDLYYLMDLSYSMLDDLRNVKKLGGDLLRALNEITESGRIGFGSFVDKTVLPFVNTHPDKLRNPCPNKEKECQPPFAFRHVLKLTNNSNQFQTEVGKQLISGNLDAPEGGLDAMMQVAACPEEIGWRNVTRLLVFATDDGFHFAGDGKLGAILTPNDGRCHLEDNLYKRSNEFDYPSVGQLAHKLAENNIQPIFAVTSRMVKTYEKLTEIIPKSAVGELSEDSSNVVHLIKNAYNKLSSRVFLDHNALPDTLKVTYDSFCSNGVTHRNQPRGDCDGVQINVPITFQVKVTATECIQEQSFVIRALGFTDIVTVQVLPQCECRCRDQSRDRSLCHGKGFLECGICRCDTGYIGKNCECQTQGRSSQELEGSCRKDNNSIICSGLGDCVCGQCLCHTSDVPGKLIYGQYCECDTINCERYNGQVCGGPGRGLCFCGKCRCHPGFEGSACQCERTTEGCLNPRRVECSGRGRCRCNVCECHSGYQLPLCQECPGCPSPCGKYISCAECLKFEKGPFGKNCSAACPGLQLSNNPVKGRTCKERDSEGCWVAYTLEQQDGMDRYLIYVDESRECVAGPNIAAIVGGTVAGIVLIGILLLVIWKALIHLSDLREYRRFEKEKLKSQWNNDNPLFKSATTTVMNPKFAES

RADPHQGVLAQGDIIMDAKG [FHA Cb]: the “reduction of binding of C3bi-coated erythrocytes to macrophages” value (from here on “reduction”) on CD11b/CD18 is “no significant effect”. What is called IC50 is the midpoint of a concentration-inhibition curve. As to ETKEVDG [FHA II, ETKEVDG], the IC50 in the data set on Human neutrophils worked out at 10 µM. Further, the “time in which concentration decreased by half” value in data set [1] lay within 4 to 6 h. As to “GYDTKQEDG [Factor X II, reference compound]”, in the data set with Human neutrophils, the 50% inhibitory concentration (IC50) worked out at 500 µM. The molecule “Ac-VEEDTKG-NH2 [scrambled ac/am FHA II, VEEDTKG, reference compound]” returned a BBB permeability in data set [2] (Experiment #3, 600 nmol) of 7.74 ± 3.59%. The Leukocytosis in data set [2] (Experiment #3, 600 nmol i.v., CSF 4 hours after LOS) was 14,287 ± 10,199 cells/ml.

`CC(=O)N[C@@H](CC(C)C)C(=O)N[C@@H](CC(C)C)C(=O)N[C@H](C=O)CCCNC(=N)N` [Leupeptin, reference compound]: the Clotting time with THP-1 cells amounted to 63.0 ± 4.0 s. Besides, in the data set on THP-1 cells (from standard curve), the “Factor Xa” value is under 10.0 ng/mL. In the case of GTLLLRNDALTENGTVTISA [FHA Cd], the “reduction” value on CD11b/CD18 is “no significant effect”. The same measure, in the same setting: for AADPHQGVLAQGDIIMDAKG [FHA Cc] the value was “no significant effect”. With RGDPHQGVLAQGDIIMDAKG [FHA Ca], at CD11b/CD18, the “reduction” value was found to be 61±7%. For the same molecule, the neutropenia entry in data set [2] (peripheral white blood cells) is given as “No neutropenia was observed”.
